Data set [1] is described as follows: Solubility determination in oil (Table 10). The note with it: thermodynamic from solid; for solubility thermodynamic: water, Equilibrium solubility: Water. As to the method:
A known amount of test substance (˜40 mg) was weighed into the vial, 100 μL of oil was added and heated to 60° C. and then system was slurried to reach equilibrium. […] Extra oil was added into the vial once compound precipitated out and then the system was re-equilibrated at 1000 rpm at room temperature (25° C.). Final concentration was determined by HPLC method as described below in Table 6a and 6b.

Data set [2] is described as follows: Dog pharmacokinetic studies, deep intramuscular administration. Format: in vivo, Beagle dogs. The note with it: Beagle, dog, plasma, im, Sesame oil + 1% Benzyl Alcohol; for AUC(0-inf): read-out: AUC0-inf (ng · h/mL) prodrug; for half-life: read-out: Half-life t1/2 (hour) prodrug (converted). As to the method: The purpose of this study is to determine the pharmacokinetics of test compounds in plasma, following deep intramuscular administration to Beagle dogs (n=3, unless otherwise specified).
(§1) The dose formulation (concentration—400 mg base equivalents/ml in sesame oil+1% benzyl alcohol, unless otherwise specified) was administered via deep intramuscularly (unless otherwise specified). The injection vehicle was also dosed via deep intramuscular route (unless otherwise specified) on contralateral site of each animal at study initiation. The animals were sedated with Propofol at 6 mg/kg via IV administration. Following sedation hair was carefully removed from around the injection site and the area gently cleaned. Care will be taken to avoid irritating skin during shaving and cleaning the injection site. Then dogs will be dosed with deep IM administration. At least 2.5 cm depth from the surface into the central aspect of the quadriceps or biceps femoris muscle, by angling the needle toward the femur. If the needle hits the femur, simply draws back slightly and then inject. The dose volume will be determined by the animals' body weight collected on the morning of dosing day. For repeated administration, the injection sites may be rotated to minimize tissue injury.
Blood samples were collected from a peripheral vessel from restrained, non-sedated animals per sampling time point.
Approximately 0.8 mL blood will be collected at each time point.
Each collected blood sample was centrifuged for 4 minutes at 4° C. and 10000 rpm for plasma collection. Plasma was collected and transferred into a pre-labeled PP tube in dry ice at each time point and precipitated immediately using ACN at a ratio of 1:4 (plasma:ACN).
(§2) LC-MS/MS methods for the quantitative determination of test compound in biological matrix were developed. […] The sample analysis was performed concurrently with a set of calibration standards and two sets of QC samples using the LC-MS/MS method.
(§3) Plasma concentration versus time data was analyzed by non-compartmental approaches using the Phoenix WinNonlin 6.3 software program. Cmax, Tmax, T1/2, AUC(0-t), AUC(0-inf), MRT(0-t), MRT(0-inf) and graphs of plasma concentration versus time profile were prepared.

A short description of data set [3]: Liver S9 fraction stability, monkey. Format: in vitro ADME, cynomolgus monkey. The note with it: monkey liver S9 1.0 mg/ml, 2 μM, 37° C. On the procedure: (§4) Liver S9 fraction stability determination of the test compounds in dog, cynomolgus monkey and human is performed using HPLC-MS. Test compound (2 μM, 0.1% DMSO, 1% Methanol final concentration) was assessed for stability in a 50 μl phosphate buffer containing 1.0 mg/ml S9 protein from each of the three species and 5 mM D-saccharic acid-1, 4-lactone. Samples were incubated at 37° C. for 60 minutes and the % compound remaining was assessed.

A short description of data set [4]: Liver S9 fraction stability, dog. The format is in vitro ADME. Particulars: dog liver S9 1.0 mg/ml, 2 μM, 37° C. On the procedure: as §4
A short description of data set [5]: Liver S9 fraction stability, human. The format is in vitro ADME. Particulars: human liver S9 1.0 mg/ml, 2 μM, 37° C. On the procedure: as §4
Data set [6] in a line: Rat pharmacokinetic studies, intramuscular administration. Particulars: male, Sprague Dawley, rat, plasma, im, Sesame oil + 1% Benzyl Alcohol; for AUC(0-inf): read-out: AUC0-inf (ng · h/mL) prodrug; for half-life: read-out: Half-life t1/2 (hour) prodrug (converted). Format: in vivo, male Sprague Dawley Rats. On the procedure: The purpose of this study is to determine the pharmacokinetics of test compounds in plasma, following intramuscular administration to male Sprague Dawley Rats (n=3, unless otherwise specified).
The dose formulation of 400 mg base equivalents/ml in sesame oil+1% benzyl alcohol (unless otherwise specified) was administered by intramuscular injection. The dose volume was determined by the animals' body weight determined on the morning of dosing day.
Each collected blood sample was centrifuged for 4 minutes at 4° C. and 10000 rpm for plasma collection. Plasma was collected and transferred into a pre-labeled PP tube in dry ice at each time point and precipitated immediately using ACN at a ratio of 1:4 (plasma:ACN). Centrifuged again (10 minutes, 12000 rpm) and obtain the supernatant.
as §2, §3

Data set [7] in a line: Polymorph screening of solid state drug substances (Table 23). Format: physicochemical. The note with it: stirred 50 °C 72 hours; for Dry method and appearance: dried solid.
Data set [8] can be described thus: Dog body weights and clinical observation (Tables 66-86). The note with it: dog D1002, 48 mg/kg. The format is in vivo, Beagle dogs. As to the method:
Weight monitoring was done every week.
as §1

Setting [9] is: 25 °C, oil or lipid, Approximate Solubility in Excipient: Cottonseed oil, Heating Temp. 60 °C, Obs. Temp. 25 °C.
The mark [10] stands for this setting: 25 °C, oil or lipid, Approximate Solubility in Excipient: Sesame oil, Heating Temp. 60 °C, Obs. Temp. 25 °C.
Where [11] appears, read: 40 °C, oil or lipid, Approximate Solubility in Excipient: Cottonseed oil, Heating Temp. 60 °C, Obs. Temp. 40 °C.
Setting [12] is: 40 °C, oil or lipid, Approximate Solubility in Excipient: Sesame oil, Heating Temp. 60 °C, Obs. Temp. 40 °C.

In brackets after ≈: the same amount, converted by molar mass.

As usually defined, the solubility is the concentration that dissolves in the medium under given conditions. As usually defined, the thermodynamic solubility is the concentration in solution at equilibrium with solid. For orientation: melting point means the temperature of the solid-liquid transition.

Turning to `C=C1CC[C@@]2(O)C3Cc4ccc(OC(=O)CCCCCCCCCCCCCCC)c5c4[C@@]2(CCN3CC2CC2)[C@H]1O5` [Compound 56, (4aS,7aS,12bS)-3-(cyclopropylmethyl)-4a-hydroxy-7-methylene-2,3,4,4a,5,6,7,7a-octahydro-1H-4,12-methanobenzofuro[3,2-e]isoquinolin-9-yl palmitate], the melting point was 48.95 °C. In data set [1] (setting [9]), the solubility at 24 h is < 50 mg/mL. Also, in data set [1] (setting [10]), the solubility at 24 h was < 50 mg/mL. The solubility in data set [1] (setting [11]) lay in the range of 25 to 50 mg/mL (≈ 43.3 to 86.5 mM). This molecule also had a solubility in data set [1] (setting [12]) of 25 to 50 mg/mL (≈ 43.3 to 86.5 mM). In [1] (40 °C, organic solvent or mixture, Approximate Solubility in Excipient: Ethanol, Heating Temp. 60 °C, Obs. Temp. 40 °C), the solubility is < 40.4 mg/mL. In addition, the thermodynamic solubility in [1] (40 °C, Heating Temp. 60 °C, Obs. Temp. 40 °C) amounted to 0.0679 mg/mL (≈ 0.118 mM).
For the molecule `C=C1CC[C@@]2(O)C3Cc4ccc(OC(=O)CCCCCCC/C=C/CCCCCCCC)c5c4[C@@]2(CCN3CC2CC2)[C@H]1O5` [Compound 15, (4aS,7aS,12bS)-3-(cyclopropylmethyl)-4a-hydroxy-7-methylene-2,3,4,4a,5,6,7,7a-octahydro-1H-4,12-methanobenzofuro[3,2-e]isoquinolin-9-yl (E)-octadec-9-enoate], the AUC(0-inf) stood at 521 ng·h/mL in data set [2] (30 mg/kg, IM 30 mg/kg); 1140 ng·h/mL in data set [2] (48 mg/kg, IM 48 mg/kg); 1350 ng·h/mL in data set [2] (96 mg/kg, IM 96 mg/kg); 679 ng·h/mL in data set [6] (80 mg/kg); 2570 ng·h/mL in data set [6] (123 mg/kg); 2790 ng·h/mL in data set [6] (165 mg/kg). In addition, the half-life in data set [2] (30 mg/kg, IM 30 mg/kg) is 134 h; in data set [2] (48 mg/kg, IM 48 mg/kg) it was 518 h; in data set [2] (96 mg/kg, IM 96 mg/kg), 162 h; in data set [6] (80 mg/kg), 1550 h; in data set [6] (123 mg/kg) it was 884 h; in data set [6] (165 mg/kg), 500 h. In addition, the “% remaining at 60 minutes, Monkey” value in data set [3] came out at 76.7%. Moreover, the solubility at 24 h was > 403 mg/mL in [1] (setting [9]) and > 396 mg/mL in data set [1] (setting [10]). Also, the solubility in data set [1] (40 °C, oil or lipid, Approximate Solubility in Excipient: Cottonseed oil, Heating Temp. 40 °C, Obs. Temp. 40 °C) was < 51 mg/mL; in data set [1] (setting [11]), > 401 mg/mL; in [1] (40 °C, oil or lipid, Approximate Solubility in Excipient: Sesame oil, Heating Temp. 40 °C, Obs. Temp. 40 °C), < 52 mg/mL; in [1] (setting [12]), > 404 mg/mL; in data set [1] (40 °C, organic solvent or mixture, Approximate Solubility in Excipient: Ethanol, Heating Temp. 40 °C, Obs. Temp. 40 °C), < 20 mg/mL. In data set [1] (40 °C, Heating Temp. 40 °C, Obs. Temp. 40 °C), the solubility (thermodynamic) was < 0.0002 mg/mL. For the same molecule, in data set [4], the “% remaining at 60 minutes, Dog” value amounted to 80.9%. Besides, in [5], the “% remaining at 60 minutes, Human” value is reported as 59.8%.
The molecule `C=C1CC[C@@]2(O)C3Cc4ccc(OC(=O)NC(C)(C)C)c5c4[C@@]2(CCN3CC2CC2)[C@H]1O5` [Compound 40, (4aS,7aS,12bS)-3-(cyclopropylmethyl)-4a-hydroxy-7-methylene-2,3,4,4a,5,6,7,7a-octahydro-1H-4,12-methanobenzofuro[3,2-e]isoquinolin-9-yl tert-butylcarbamate] came in with a melting point of 107.6 °C. In data set [7] (Acetone), the “XRPD results (Dried)” value is “Amorphous”; the “Dry method and appearance” value is listed as “Evaporation/white powder”. Moreover, in data set [7] (EtOAc), the “XRPD results (Dried)” value is listed as “Pattern A”; the “Dry method and appearance” value was “Evaporation/white powder”. For the same molecule, in [7] (Heptane), the “XRPD results (Dried)” value is “Pattern A”; the “Dry method and appearance” value is on record as “Centrifugation/white powder”. In data set [7] (Isopropanol), the “XRPD results (Dried)” value was “Amorphous”; the “Dry method and appearance” value is given as “Evaporation/oil”. Moreover, in data set [7] (MTBE), the “XRPD results (Dried)” value is listed as “Amorphous”; the “Dry method and appearance” value is recorded as “Evaporation/white powder”.
Turning to `C=C1CC[C@@]2(O)C3Cc4ccc(OCOC(=O)OCCCCCCCCCCC)c5c4[C@@]2(CCN3CC2CC2)[C@H]1O5` [Compound 5, (((4aS,7aS,12bS)-3-(cyclopropylmethyl)-4a-hydroxy-7-methylene-2,3,4,4a,5,6,7,7a-octahydro-1H-4,12-methanobenzofuro[3,2-e]isoquinolin-9-yl)oxy)methyl undecyl carbonate], in [2] (48 mg/kg, IM 48 mg/kg), the AUC(0-inf) came out at 3870 ng·h/mL. Also, in data set [2] (48 mg/kg, IM 48 mg/kg), the half-life is 70.9 h. For the same molecule, the solubility was > 402 mg/mL in [1] (25 °C, oil or lipid, Solubility by volumetric flask method: Cottonseed oil, volumetric flask method, Heating Temp. 60 °C, Obs. Temp. 25 °C) and > 401 mg/mL in data set [1] (25 °C, oil or lipid, Solubility by volumetric flask method: Sesame oil, volumetric flask method, Heating Temp. 60 °C, Obs. Temp. 25 °C). Moreover, the solubility (thermodynamic) in [1] (40 °C, section 'Solubility by volumetric flask method', Heating Temp. 40 °C, Obs. Temp. 40 °C) was < 0.001 mg/mL. Further, the BT in data set [8] (456 hr) was 3 cm * 3 cm/BT: 38.9 °C; in [8] (504 hr), 3 cm * 3 cm/BT: 38.7 °C; in data set [8] ([…]) it was 3 cm * 4 cm/BT: 39.4 °C.

The values are drawn from US20190308988A1, “OPIOID RECEPTOR ANTAGONIST PRODRUGS” (Nirsum Laboratories, Inc., priority 2017, published 2019).
